Test results published in patent publication US11045480B2, “Anti-huLRRC15 antibody drug conjugates and methods for their use” (AbbVie Inc., priority 2015, dated 2021).

What was measured:
[1] = tested on: NCI-H1650 (NSCLC) xenograft; assay: NCI-H1650 xenograft tumor growth; type: in vivo, mouse; settings: NCI-H1650, SCID/Beige mice; for TGD, single agent / TGImax, single agent: biologics 6 or 12 mg/kg IP Q4D×6, erlotinib 100 mg/kg orally daily ×10, carboplatin 50 mg/kg IP Q4D×4 (FIG. 20A, 22A)
Experimental: The potency of anti-huLRRC15 ADCs as compared to current standards of care was assessed in xenograft models with NCI-H1650 ([…]), HN5 (head and neck), EBC-1 (squamous NSCLC), NW231 (breast) and PANC1 (pancreatic) cancer cells. […] For FIG. 20A, NCI-H1650 cells (5 million cells) were implanted subcutaneously into SCID/Beige mice and tumors were randomized when they reached ˜200 mm^3 and dosed with biologics at 6 or 12 mg/kg intraperitoneally on a Q4D×6 (one dose given every 4 days for a total of 6 doses), while erlotinib was dosed orally daily for 10 days at 100 mg/kg, and carboplatin was dosed intraperitoneally Q4D×4 (one dose given every 4 days for a total of 4 doses) at 50 mg/kg.
NCI-H1650 NSCLC cancer cells (5 million) were implanted subcutaneously into SCID/Beige mice, and mice were randomized when the tumors reached ˜200 mm^3 and dosed with biologics at 6 or 12 mg/kg intraperitoneally on a Q4D×6 (one dose given every 4 days for a total of 6 doses), while erlotinib was dosed orally daily at 100 mg/kg for 10 doses.
NCI-H1650 NSCLC cancer cells (5 million) were implanted subcutaneously into SCID/Beige mice, and mice were randomized when the tumors reached ˜200 mm^3 and dosed on day 0 with isotype or ADC at 0.1, 0.3, or 0.6 mg/kg intraperitoneally.
NCI-H1650 adeno NSCLC cells (5 million) were implanted subcutaneously into SCID/Beige mice, and mice were randomized when the tumors reached ˜225 mm^3 and dosed with ADC at 0.6 mg/kg or isotype antibody at 12 mg/kg intraperitoneally once on day 0.

[2] = tested on: SCC-15 head and neck cancer xenograft; assay: SCC-15 xenograft tumor growth; type: in vivo, mouse; settings: SCC-15, SCID mice; biologics 12 mg/kg IP Q7D×6; carboplatin 50 mg/kg IP Q4D×4 (FIG. 21E)
Experimental: Radiation is a commonly used cytotoxic therapy in oncology. […] SCC-15 head and neck cancer cells (1 million) were implanted subcutaneously into SCID mice, and mice were randomized when the tumors reached ˜200 mm^3 and dosed with biologics at 12 mg/kg intraperitoneally on a Q4D×6 (one dose given every 4 days for a total of 6 doses), while the radiation was directed at the tumor with a single radiation dose of 15 Gy on day 0.
SCC-15 head and neck cancer cells (1 million) were implanted subcutaneously into SCID mice, and mice were randomized when the tumors reached ˜200 mm^3 and dosed with biologics at 12 mg/kg intraperitoneally on a Q7D×6 (one dose given every 7 days for a total of 6 doses), while carboplatin was dosed intraperitoneally […] at 50 mg/kg Q4D×4 (one dose given every 4 days for a total of 4 doses).

[3] = tested on: EBC-1 (human squamous NSCLC) xenograft; assay: EBC-1 xenograft tumor growth; type: in vivo, mouse
Experimental: For the experiments, five million cells (EBC-1) that were grown in vitro were inoculated subcutaneously per mouse into the right flank of female SCID-Beige mice. Tumors were size matched at ˜200 mm^3, and dosed intraperitoneally (IP) Q4D×6 (1 dose given every 4 days for a total of 6 doses) as shown in FIG. 13A. Measurements of the length (L) and width (W) of the tumors were taken via electronic caliper and the volume was calculated according to the following equation: V=L×W^2/2.
For this experiment, tumors were size matched at ˜200 mm^3, and dosed intraperitoneally (IP) Q7D×2 (1 dose given every 7 days for a total of 2 doses) as shown in FIG. 13C. […]
5 million cells were implanted subcutaneously into SCID/Beige mice, and mice were randomized when tumor group mean volumes reached ˜200 mm^3.
In FIG. 20C, EBC1 cells (5 million) were implanted subcutaneously into SCID/Beige mice and mice were randomized when the tumors reached ˜200 mm^3 and dosed with biologics at 6 mg/kg intraperitoneally on a Q7D×2 (one dose given every 7 days for a total of 2 doses), while erlotinib was dosed orally daily for 10 days at 50 mg/kg, and carboplatin was dosed intraperitoneally Q4D×3 (one dose given every 4 days for a total of 3 doses) at 50 mg/kg.
In FIG. 21B, EBC-1 squamous NSCLC cells (5 million) were implanted subcutaneously into SCID/Beige mice, and mice were randomized when the tumors reached ˜200 mm^3 and dosed with biologics at 6 mg/kg intraperitoneally on a Q7D×2 (one dose given every 7 days for a total of 2 doses), while gemcitabine was dosed intraperitoneally at 100 mg/kg (Q3D×3) (one dose given every three days for 3 doses total).

[4] = tested on: EBC-1 (human squamous NSCLC) xenograft; assay: EBC-1 xenograft tumor growth; type: in vivo, mouse; settings: EBC-1, SCID/Beige mice; huM25-vcMMAE-E2 at 3 mg/kg (method: biologics 6 mg/kg IP Q7D×2); method: gemcitabine 100 mg/kg IP Q3D×3, result sentence names docetaxel (FIG. 21B)
[5] = tested on: NW231 breast cancer xenograft; assay: NW231 xenograft tumor growth; type: in vivo, mouse; settings: NW231, SCID mice; biologics 12 mg/kg IP Q4D×6; doxorubicin 1 mg/kg IV days 0, 4, 8, 13, 18 (FIG. 20D)
Experimental: In FIG. 20D, NW231 breast cancer cells (10 million) were implanted subcutaneously into SCID mice, and mice were randomized when the tumors reached ˜150 mm^3 and dosed with biologics at 12 mg/kg intraperitoneally on a Q4D×6 (one dose given every 4 days for a total of 6 doses), while doxorubicin was dosed intravenously at 1 mg/kg on days 0, 4, 8, 13 and 18.

[6] = tested on: HN5 (head and neck) xenograft; assay: HN5 xenograft tumor growth; type: in vivo, mouse; settings: HN5, NSG mice; ADC 4.5 mg/kg IP Q4D×6; erlotinib 150 mg/kg orally daily ×10; cetuximab 3 mg/kg IP Q7D×3 (FIG. 20B)
[7] = tested on: PANC1 (pancreatic) xenograft; assay: PANC1 xenograft tumor growth; type: in vivo, mouse; settings: PANC1, SCID mice; biologics 12 mg/kg IP Q4D×6; gemcitabine 100 mg/kg IP Q3D×4 (FIG. 20E)
Experimental: (§1) In FIG. 20E, PANC1 pancreatic cancer cells (10 million) were implanted subcutaneously into SCID mice, and mice were randomized when the tumors reached ˜125 mm^3 and dosed with biologics at 12 mg/kg intraperitoneally on a Q4D×6 (one dose given every 4 days for a total of 6 doses), while gemcitabine was dosed intraperitoneally at 100 mg/kg Q3D×4) (one dose given every three days for 4 doses total).

[8] = tested on: HPAF-II (human pancreatic) xenograft; assay: HPAF-II xenograft tumor growth; type: in vivo, mouse; settings: SCID mice, biologics 6 mg/kg IP Q4D×6, gemcitabine 100 mg/kg IP (Q3D×4)×2 (FIG. 21A)
Experimental: For the experiment, 1 million cells (HPAF-II) that were grown in vitro were inoculated subcutaneously per mouse into the right flank of female SCID-Beige mice. Tumors were size matched at ˜200 mm^3, and dosed intraperitoneally (IP) Q4D×6 (1 dose given every 4 days for a total of 6 doses) as shown in FIG. 13B.
as §1, with “21A, HPAF-II” for “20E, PANC1”, “(1” for “(10”, “˜200” for “˜125”, “6” for “12”, “(Q3D×4)×2” for “Q3D×4)”, “per cycle, 2 cycles with 8 total doses given).” for “total).”

[9] = biological target: T1, huLRRC15 (Homo sapiens, UniProt Q8TF66); assay: Flow cytometry competition assay against labeled muM25 (muM25-AF488) on U118MG cells; type: binding; settings: 1 μg/mL muM25-AF488, unlabeled test antibody 0.0001-100 μg/mL
T1 construct: endogenous in cells; host or cells: U118MG glioblastoma cells
T1 sequence (Q8TF66 22-581): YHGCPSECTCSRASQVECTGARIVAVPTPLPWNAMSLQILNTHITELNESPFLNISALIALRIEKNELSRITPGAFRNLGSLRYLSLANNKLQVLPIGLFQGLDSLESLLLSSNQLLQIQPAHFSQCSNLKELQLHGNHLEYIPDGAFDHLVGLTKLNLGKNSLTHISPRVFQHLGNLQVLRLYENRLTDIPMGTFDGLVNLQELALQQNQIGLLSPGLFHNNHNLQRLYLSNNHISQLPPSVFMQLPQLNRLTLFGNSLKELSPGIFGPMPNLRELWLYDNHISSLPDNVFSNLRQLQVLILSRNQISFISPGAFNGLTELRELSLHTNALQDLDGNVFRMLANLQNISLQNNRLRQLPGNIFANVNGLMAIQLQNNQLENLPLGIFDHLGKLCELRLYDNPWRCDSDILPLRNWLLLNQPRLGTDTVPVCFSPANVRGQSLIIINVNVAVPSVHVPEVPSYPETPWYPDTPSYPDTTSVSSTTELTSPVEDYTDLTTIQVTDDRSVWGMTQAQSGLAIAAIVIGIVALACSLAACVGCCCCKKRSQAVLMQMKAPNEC
Description: Isotype control antibodies (human or mouse) were used as negative controls, and unlabeled muM25 was used as a positive control.
In this assay, competition due to a test antibody binding to the same or a proximal epitope as the labeled reference antibody reduce binding of the reference labeled antibody.

[10] = tested on: human BM-MSC (Lonza); assay: In vitro cell killing of human mesenchymal stem cells with TGFβ; type: cell-based; settings: human BM-MSC (Lonza) treated with 10 ng/mL TGFβ (FIG. 23B)
[11] = EBC1, SCID/Beige mice, biologics 6 mg/kg IP Q7D×2, erlotinib 50 mg/kg orally daily ×10, carboplatin 50 mg/kg IP Q4D×3 (FIG. 20C)
[12] = EBC-1, SCID/Beige mice, biologics 3 or 6 mg/kg IP Q4D×6, method: docetaxel 7.5 mg/kg IV, result sentence names gemcitabine (FIG. 21C)
[13] = 0.6 mg/kg IP once on day 0 (FIG. 24G)
[14] = EBC-1, SCID mice, 0.6 mg/kg Q7D×2 (FIG. 24H)

N.N.O=C([O-])C1(C(=O)[O-])CCC1.[Pt+2] [carboplatin, reference compound]
TGD, single agent [1]: 77%
TGImax, single agent [1]: 56%
TGD, single agent [2]: 33%
TGImax, single agent [2]: 56%
TGD [3, 11]: 43%
TGImax [3, 11]: 39%

CC(=O)O[C@@]12CO[C@@H]1C[C@H](O)[C@@]1(C)C(=O)[C@H](O)C3=C(C)[C@@H](OC(=O)[C@H](O)[C@@H](NC(=O)OC(C)(C)C)c4ccccc4)C[C@@](O)([C@@H](OC(=O)c4ccccc4)[C@H]21)C3(C)C [docetaxel, reference compound]
TGImax, single agent [4]: 77%
TGD, single agent ([3]; EBC-1, SCID/Beige mice, huM25-vcMMAE-E2 at 3 mg/kg (method: biologics 6 mg/kg IP Q7D×2), method: gemcitabine 100 mg/kg IP Q3D×3, result sentence names docetaxel (FIG. 21B)): 48%

COc1cccc2c1C(=O)c1c(O)c3c(c(O)c1C2=O)C[C@@](O)(C(=O)CO)C[C@@H]3O[C@H]1C[C@H](N)[C@H](O)[C@H](C)O1 [doxorubicin, reference compound]
TGImax [5]: 65%

C#Cc1cccc(Nc2ncnc3cc(OCCOC)c(OCCOC)cc23)c1 [erlotinib, reference compound]
TGD [6]: 12%
TGImax [6]: 23%
TGD, single agent [1]: 77%
TGImax, single agent [1]: 90%
TGD [3, 11]: 14%
TGImax [3, 11]: 27%

Nc1ccn([C@@H]2O[C@H](CO)[C@@H](O)C2(F)F)c(=O)n1 [gemcitabine, reference compound]
TGImax [7]: 55%
TGD, single agent [8]: 117%
TGImax, single agent [8]: 73%
TGD, single agent [3, 12]: 171%
TGImax, single agent [3, 12]: 95%

B1: muAD209.9.1: murine anti-huLRRC15 antibody; VH SEQ ID NO:76, VL SEQ ID NO:77 (antibody, V domains shown)
VH: QIQLVQSGPELKKPGETVKISCKASGFAITNFGMNWVKQAPGKGLKWMGWINLYTGEPTFADDFKGRFAFSLETSASTAYLQINNLKNEDTVIYFCARKGETYYRYDGFAYWGQGTLVTVSA
VL: DIVMTQAAPSVPVTPGESVSISCRSSKSLLHSNGNTHLYWFLQRPGQSPQLLIYRMSNLASGVPDRFSGSGSGTAFTLRISRVEAEDVGVYYCMQLLEYPYTFGGGTKLEIE
competition with labeled muM25 for binding cells expressing huLRRC15 [9]: do not inhibit

B2: huAD208.4.1-PBD-DAR2: PBD synthon vaPBD conjugated with anti-huLRRC15 antibody huAD208.4.1 to yield a DAR of 2 (conjugate)
VH: EVQLVQSGAEVKKPGSSVKVSCKASGFTFTDYYIHWVKQAPGQGLEWIGLVYPYIGGTNYNQKFKGKATLTVDTSTTTAYMEMSSLRSEDTAVYYCARGDNKYDAMDYWGQGTTVTVSS
VL: DIVLTQSPDSLAVSLGERATINCRASQSVSTSSYSYMHWYQQKPGQPPKLLIKYASSLESGVPDRFSGSGSGTDFTLTISSLQAEDVAVYYCEQSWEIRTFGGGTKVEIK
TGD [1, 13]: > 388%
TGImax [1, 13]: 95%
TGD [3, 14]: > 600%
TGImax [3, 14]: 91%
cell killing effect relative to isotype-PBD-DAR2 at the same doses [10]: higher cell killing effect
